Biological target: P. falciparum apicoplast DNA polymerase (Pf-apPOL) (Plasmodium falciparum, UniProt Q8ILY1)
Test: Fluorescence-based high-throughput DNA polymerase assay (molecular beacon), primary screen and dose-response
Type: biochemical
Settings: for DNA Pol: 90 min, 10 µM; for % inhibition apPOL 180' 2.5 / % inhibition apPOL 180' 5 / % inhibition apPOL 180' 10 / % inhibition apPOL 180' 20 / % inhibition apPOL 180' 40 / % inhibition apPOL 180' 80: read at 180'
Summary of the method: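 Single-point screening used 10 µM compound with 20 nM polymerase, 20 nM hairpin substrate and 6 µM dNTPs for 90 min at 25 °C. Confirmatory titrations (2.5–80 µM) followed fluorescence at three times, and IC50 was derived from a fit including a cooperativity term n.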

P. falciparum apicoplast DNA polymerase (Pf-apPOL), sequence (Q8ILY1 entry or part of it): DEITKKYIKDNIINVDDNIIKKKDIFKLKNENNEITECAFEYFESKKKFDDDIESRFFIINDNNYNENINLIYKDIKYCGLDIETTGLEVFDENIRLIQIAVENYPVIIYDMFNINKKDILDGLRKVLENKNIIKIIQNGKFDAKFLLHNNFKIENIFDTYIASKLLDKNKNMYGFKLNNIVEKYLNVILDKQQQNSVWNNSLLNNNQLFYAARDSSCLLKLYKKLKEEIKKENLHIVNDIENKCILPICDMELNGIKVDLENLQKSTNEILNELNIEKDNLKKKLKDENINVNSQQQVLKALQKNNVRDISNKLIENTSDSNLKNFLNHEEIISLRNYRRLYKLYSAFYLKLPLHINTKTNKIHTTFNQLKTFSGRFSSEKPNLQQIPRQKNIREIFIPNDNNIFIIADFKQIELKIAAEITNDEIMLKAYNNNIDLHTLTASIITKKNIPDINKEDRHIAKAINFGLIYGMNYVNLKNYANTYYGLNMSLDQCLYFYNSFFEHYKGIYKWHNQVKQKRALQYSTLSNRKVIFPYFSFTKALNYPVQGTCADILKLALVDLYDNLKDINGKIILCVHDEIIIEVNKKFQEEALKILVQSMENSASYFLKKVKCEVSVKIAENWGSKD

CC(=O)Nc1cc(C(=O)c2cccs2)nn(-c2ccc(Cl)cc2)c1=O [KU0267905]
DNA Pol (186 hits, DNA Pol (screen value), unit not given): 68
DNA Pol ('DNA Pol' (screen value), unit not given): 68
% inhibition Apo pol 10' 2.5 (DRC-1, read at 10', concentration 2.5): -1.115%
% inhibition Apo pol 10' 5 (DRC-1, read at 10', concentration 5): 9.678%
% inhibition Apo pol 10' 10 (DRC-1, read at 10', concentration 10): 23.8402%
% inhibition Apo pol 10' 20 (DRC-1, read at 10', concentration 20): 30.1491%
% inhibition Apo pol 10' 40 (DRC-1, read at 10', concentration 40): 60.7427%
% inhibition Apo pol 10' 80 (DRC-1, read at 10', concentration 80): 68.442%
% inhibition Apol 90' 2.5 (DRC-1, read at 90', concentration 2.5): -1.383%
% inhibition Apol 90' 5 (DRC-1, read at 90', concentration 5): -2.969%
% inhibition Apol 90' 10 (DRC-1, read at 90', concentration 10): 7.904%
% inhibition Apol 90' 20 (DRC-1, read at 90', concentration 20): 14.4381%
% inhibition Apol 90' 40 (DRC-1, read at 90', concentration 40): 45.4354%
% inhibition Apol 90' 80 (DRC-1, read at 90', concentration 80): 70.7976%
% inhibition apPOL 180' 2.5 (DRC-1, concentration 2.5): -1.959%
% inhibition apPOL 180' 5 (DRC-1, concentration 5): -7.949%
% inhibition apPOL 180' 10 (DRC-1, concentration 10): -1.249%
% inhibition apPOL 180' 20 (DRC-1, concentration 20): 2.642%
% inhibition apPOL 180' 40 (DRC-1, concentration 40): 28.3479%
% inhibition apPOL 180' 80 (DRC-1, concentration 80): 62.799%
% inhibition Apo pol 5' (DRC-2, concentration 2.5): 7%
% inhibition Apol 40' (DRC-2, concentration 5): 7%
% inhibition Apol 40' (DRC-2, concentration 80): 52%
% inhibition ApPOL 90' (DRC-2, concentration 5): 4%
% inhibition apPOL 180' (DRC-2, concentration 10): 4%
% inhibition apPOL 180' (DRC-2, concentration 80): 52%
% inhibition Apo pol 5' 2.5 (DRC-2, read at 5', concentration 2.5): 7%
% inhibition Apo pol 5' 5 (DRC-2, read at 5', concentration 5): 11%
% inhibition Apo pol 5' 10 (DRC-2, read at 5', concentration 10): 21%
% inhibition Apo pol 5' 20 (DRC-2, read at 5', concentration 20): 29%
% inhibition Apo pol 5' 40 (DRC-2, read at 5', concentration 40): 40%
% inhibition Apo pol 5' 80 (DRC-2, read at 5', concentration 80): 36%
% inhibition Apol 40' 2.5 (DRC-2, read at 40', concentration 2.5): 4.64%
% inhibition Apol 40' 5 (DRC-2, read at 40', concentration 5): 7%
% inhibition Apol 40' 10 (DRC-2, read at 40', concentration 10): 15%
% inhibition Apol 40' 20 (DRC-2, read at 40', concentration 20): 25%
% inhibition Apol 40' 40 (DRC-2, read at 40', concentration 40): 44%
% inhibition Apol 40' 80 (DRC-2, read at 40', concentration 80): 52%
% inhibition ApPOL 90' 2.5 (DRC-2, read at 90', concentration 2.5): 3.39%
% inhibition ApPOL 90' 5 (DRC-2, read at 90', concentration 5): 4%
% inhibition ApPOL 90' 10 (DRC-2, read at 90', concentration 10): 12%
% inhibition ApPOL 90' 20 (DRC-2, read at 90', concentration 20): 19%
% inhibition ApPOL 90' 40 (DRC-2, read at 90', concentration 40): 42%
% inhibition ApPOL 90' 80 (DRC-2, read at 90', concentration 80): 55%
% inhibition apPOL 180' 2.5 (DRC-2, concentration 2.5): -1.41%
% inhibition apPOL 180' 5 (DRC-2, concentration 5): 0.65%
% inhibition apPOL 180' 10 (DRC-2, concentration 10): 4%
% inhibition apPOL 180' 20 (DRC-2, concentration 20): 9%
% inhibition apPOL 180' 40 (DRC-2, concentration 40): 31%
% inhibition apPOL 180' 80 (DRC-2, concentration 80): 52%

O=C1N=C(Nc2cccc(Cl)c2Cl)S/C1=C\c1ccco1 [Molecule 3, O=C1N=C(S/C/1=C\c1ccco1)Nc1cccc(c1Cl)Cl]
DNA Pol ('DNA Pol' of the 186 hits list (primary screen value)): 74
DNA Pol (DNA Pol (primary screen value)): 74
% inhibition Apo pol 10' (DRC-1, concentration 2.5): 26.4621%
% inhibition Apo pol 10' (DRC-1, concentration 5): 50.3585%
% inhibition Apo pol 10' (DRC-1, concentration 10): 71.7156%
% inhibition Apo pol 10' (DRC-1, concentration 20): 70.1447%
% inhibition Apo pol 10' (DRC-1, concentration 40): 64.4851%
% inhibition Apo pol 10' (DRC-1, concentration 80): 49.9988%
% inhibition Apol 90' (DRC-1, concentration 2.5): 14.8677%
% inhibition Apol 90' (DRC-1, concentration 5): 38.7366%
% inhibition Apol 90' (DRC-1, concentration 10): 64.2373%
% inhibition Apol 90' (DRC-1, concentration 20): 68.803%
% inhibition Apol 90' (DRC-1, concentration 40): 72.5757%
% inhibition Apol 90' (DRC-1, concentration 80): 68.4026%
% inhibition apPOL 180' (DRC-1, concentration 2.5): 3.99%
% inhibition apPOL 180' (DRC-1, concentration 5): 24.8255%
% inhibition apPOL 180' (DRC-1, concentration 10): 52.4106%
% inhibition apPOL 180' (DRC-1, concentration 20): 60.3634%
% inhibition apPOL 180' (DRC-1, concentration 40): 70.3618%
% inhibition apPOL 180' (DRC-1, concentration 80): 71.4479%
% inhibition Apo pol 5' (DRC-2, concentration 2.5): 35%
% inhibition Apo pol 5' (DRC-2, concentration 5): 38%
% inhibition Apo pol 5' (DRC-2, concentration 10): 42%
% inhibition Apo pol 5' (DRC-2, concentration 20): 31%
% inhibition Apo pol 5' (DRC-2, concentration 40): 11%
% inhibition Apo pol 5' (DRC-2, concentration 80): -21%
% inhibition Apol 40' (DRC-2, concentration 2.5): 37%
% inhibition Apol 40' (DRC-2, concentration 5): 44%
% inhibition Apol 40' (DRC-2, concentration 10): 58%
% inhibition Apol 40' (DRC-2, concentration 20): 56%
% inhibition Apol 40' (DRC-2, concentration 40): 44%
% inhibition Apol 40' (DRC-2, concentration 80): 25%
% inhibition ApPOL 90' (DRC-2, concentration 2.5): 34%
% inhibition ApPOL 90' (DRC-2, concentration 5): 42%
% inhibition ApPOL 90' (DRC-2, concentration 10): 59%
% inhibition ApPOL 90' (DRC-2, concentration 20): 60%
% inhibition ApPOL 90' (DRC-2, concentration 40): 53%
% inhibition ApPOL 90' (DRC-2, concentration 80): 40%
% inhibition apPOL 180' (DRC-2, concentration 2.5): 22%
% inhibition apPOL 180' (DRC-2, concentration 5): 31%
% inhibition apPOL 180' (DRC-2, concentration 10): 54%
% inhibition apPOL 180' (DRC-2, concentration 20): 62%
% inhibition apPOL 180' (DRC-2, concentration 40): 60%
% inhibition apPOL 180' (DRC-2, concentration 80): 53%
